Columns and labels:
Human alphaherpesvirus 1 [1] = experiment: Antiviral activity against HSV1 infected in African green monkey Vero cells assessed as reduction of virus-induced cytopathic effect measured after 48 hrs of incubation; assay type: functional, organism-based; conditions: Human alphaherpesvirus 1, Vero
[2] = Cytotoxicity against African green monkey Vero cells assessed as cell viability measured after 24 hrs incubation by MTT assay; assay type: toxicity, cell-based; conditions: chlorocebus sabaeus
[3] = Selectivity index, ratio of CC50 for Cytotoxicity against african green monkey Vero cells to IC50 for Antiviral activity against HSV1 infected in African green monkey Vero cells; assay type: toxicity, cell-based; conditions: read-out: Selectivity Index
Human alphaherpesvirus 1 [4] = experiment: Antiviral activity against ACV-resistant HSV1 Blue infected in African green monkey Vero cells assessed as reduction of virus-induced cytopathic effect measured after 48 hrs of incubation; assay type: functional, organism-based; conditions: Human alphaherpesvirus 1, Blue
Human alphaherpesvirus 1 [5] = experiment: Antiviral activity against ACV-resistant HSV1 153 infected in African green monkey Vero cells assessed as reduction of virus-induced cytopathic effect measured after 48 hrs of incubation; assay type: functional, organism-based; conditions: Human alphaherpesvirus 1, 153, Vero

| Compound | IC50 (Human alphaherpesvirus 1 [1]) [nM] | CC50 at 24 h [2] [nM] | selectivity ratio [3] | IC50 (Human alphaherpesvirus 1 [4]) [nM] | IC50 (Human alphaherpesvirus 1 [5]) [nM] |
| --- | --- | --- | --- | --- | --- |
| CC(C)CC(=O)c1ccc2c(c1O)C(CC(C)C)C1=C(O2)C(C)(C)C(=O)C(C)(C)C1=O (stereo not drawn) | 50000 | > 100000 |  |  |  |
| CC(C)CC(=O)c1c(O)c(Br)c2c(c1O)C(CC(C)C)C1=C(O2)C(C)(C)C(=O)C(C)(C)C1=O (stereo not drawn) | 600 | 7000 | 11.7 | 600 | 700 |
| CC(C)CC(O)c1c(O)cc2c(c1O)C(CC(C)C)C1=C(O2)C(C)(C)C(=O)C(C)(C)C1=O (stereo not drawn) | > 100000 | > 100000 |  |  |  |
| CC(C)CC(=O)c1c(O)cc(O)c2c1OC1=C(C(=O)C(C)(C)C(=O)C1(C)C)C2C(C)C (racemic) | 3750 | 10000 | < 4 |  |  |
| CC(=O)c1c(O)cc2c(c1O)C(CC(C)C)C1=C(O2)C(C)(C)C(=O)C(C)(C)C1=O (stereo not drawn) | 900 | 12500 | 13.4 |  |  |
| CCC1C2=C(Oc3cc(O)c(C(=O)CC(C)C)c(O)c31)C(C)(C)C(=O)C(C)(C)C2=O (stereo not drawn) | 800 | 6000 | 7.5 | 600 | 500 |
| CC(=O)c1c(O)cc(O)c2c1OC1=C(C(=O)C(C)(C)C(=O)C1(C)C)C2CC(C)C (stereo not drawn) | 10000 | > 100000 | > 10 |  |  |
| CCC1C2=C(Oc3c(C(=O)CC(C)C)c(O)cc(O)c31)C(C)(C)C(=O)C(C)(C)C2=O (racemic) | 1500 | 10000 | < 10 |  |  |
| CC(C)CC1C2=C(Oc3cc(O)c(C(=O)C(C)C)c(O)c31)C(C)(C)C(=O)C(C)(C)C2=O (stereo not drawn) | 630 | 7000 | 17.8 | 300 | 400 |
| CC(C)CC(=O)c1c(O)cc2c(c1O)[C@H](CC(C)C)C1=C(O2)C(C)(C)C(=O)C(C)(C)C1=O | 390 | 7280 | 18.7 |  |  |
| CC(C)CC1C2=C(Oc3cc(O)c(C(=O)C4CCCCC4)c(O)c31)C(C)(C)C(=O)C(C)(C)C2=O (stereo not drawn) | 200 | 7000 | 35 | 250 | 300 |
| CC(C)C(=O)c1c(O)cc2c(c1O)C(C(C)C)C1=C(O2)C(C)(C)C(=O)C(C)(C)C1=O (racemic) | 780 | 20900 | 26.8 |  |  |
| CC(C)CC1C2=C(Oc3cc(O)c(C(=O)CCCCCl)c(O)c31)C(C)(C)C(=O)C(C)(C)C2=O (stereo not drawn) | 450 | 8000 | 16 | 600 | 500 |
| CC(C)CC(=O)c1c(OS(=O)(=O)C(F)(F)F)cc2c(c1O)C(CC(C)C)C1=C(O2)C(C)(C)C(=O)C(C)(C)C1=O (stereo not drawn) | 1200 | 20000 | 16.7 | 1000 | 600 |
| CCCC(=O)c1c(O)cc2c(c1O)C(CC(C)C)C1=C(O2)C(C)(C)C(=O)C(C)(C)C1=O (stereo not drawn) | 500 | 10000 |  | 800 | 600 |
| CC(C)CC(=O)c1c(O)cc2c(c1O)C(c1ccccc1)C1=C(O2)C(C)(C)C(=O)C(C)(C)C1=O (stereo not drawn) | 450 | 11000 | 24.4 | 400 | 300 |
| CCC(=O)c1c(O)cc2c(c1O)C(CC(C)C)C1=C(O2)C(C)(C)C(=O)C(C)(C)C1=O (stereo not drawn) | 700 | 7000 | 13.9 | 1400 | 1300 |
| COc1c(C(=O)CC(C)C)c(O)cc2c1C(CC(C)C)C1=C(O2)C(C)(C)C(=O)C(C)(C)C1=O (stereo not drawn) | 50000 | > 100000 |  |  |  |
| CC(C)CC1C2=C(Oc3cc(O)c(C(=O)Cc4ccc(F)cc4)c(O)c31)C(C)(C)C(=O)C(C)(C)C2=O (stereo not drawn) | 350 | 6000 | 17.1 | 200 | 200 |
| CC(C)CC1C2=C(Oc3cc(O)c(C=O)c(O)c31)C(C)(C)C(=O)C(C)(C)C2=O (stereo not drawn) | 4500 | 16000 | 3.56 |  |  |
| CCCC1C2=C(Oc3cc(O)c(C(=O)CC(C)C)c(O)c31)C(C)(C)C(=O)C(C)(C)C2=O (stereo not drawn) | 500 | 9000 | 18 | 300 | 500 |
| CC(C)CC1C2=C(Oc3cc(O)c(C(=O)c4ccccc4)c(O)c31)C(C)(C)C(=O)C(C)(C)C2=O (stereo not drawn) | 2500 | 10000 | 4 |  |  |
| CC(C)CC(=O)c1c(O)cc2c(c1O)[C@@H](CC(C)C)C1=C(C[C@H](C)CC1=O)O2 | 2000 | 14000 | 7 |  |  |
| CC(=O)Oc1cc2c(c(OC(C)=O)c1C(=O)CC(C)C)C(CC(C)C)C1=C(O2)C(C)(C)C(=O)C(C)(C)C1=O (stereo not drawn) | 500 | 7000 | 14 | 300 | 400 |
| CC(C)CC1C2=C(Oc3cc(O)cc(O)c31)C(C)(C)C(=O)C(C)(C)C2=O (stereo not drawn) | 7000 | 13000 | 1.86 |  |  |

| Compound | IC50 (Human alphaherpesvirus 1 [1]) [nM] | CC50 at 24 h [2] [nM] | selectivity ratio [3] | IC50 (Human alphaherpesvirus 1 [4]) [nM] | IC50 (Human alphaherpesvirus 1 [5]) [nM] |
| --- | --- | --- | --- | --- | --- |
| CC(C)CC(=O)c1c(O)cc2c(c1O)C(C1CCCC1)C1=C(O2)C(C)(C)C(=O)C(C)(C)C1=O (stereo not drawn) | 700 | 8000 | 11.4 | 500 | 500 |
| CC(C)CC1C2=C(Oc3cc(O)c(C(=O)Cc4ccccc4)c(O)c31)C(C)(C)C(=O)C(C)(C)C2=O (stereo not drawn) | 400 | 8500 | 21.2 | 300 | 500 |
| CC1(C)C(=O)C2=C(Oc3cc(O)cc(O)c3C2c2ccccc2)C(C)(C)C1=O (stereo not drawn) | 8000 | 18000 | 2.25 |  |  |
| CC(C)CC(=O)c1c(O)cc2c(c1O)C(Cc1ccccc1)C1=C(O2)C(C)(C)C(=O)C(C)(C)C1=O (stereo not drawn) | 600 | 13000 | 21.7 | 600 | 600 |
| COc1cc2c(c(OC)c1C(=O)CC(C)C)C(CC(C)C)C1=C(O2)C(C)(C)C(=O)C(C)(C)C1=O (stereo not drawn) | 50000 | > 100000 |  |  |  |
| CC(C)CC(=O)c1c(O)cc2c(c1O)C(C1CCC1)C1=C(O2)C(C)(C)C(=O)C(C)(C)C1=O (stereo not drawn) | 500 | 5000 | 10 | 500 | 400 |
| CC(C)CC(=O)c1c(O)cc(O)c2c1OC1=C(C(=O)C(C)(C)C(=O)C1(C)C)C2c1ccccc1 (racemic) | 2500 | 12800 | 5.11 |  |  |
| CC(C)CC1C2=C(Oc3c(C(=O)C4CCC4)c(O)cc(O)c31)C(C)(C)C(=O)C(C)(C)C2=O (stereo not drawn) | 5500 | 10000 | < 2.72 |  |  |
| CCCCC1C2=C(Oc3cc(O)c(C(=O)CC(C)C)c(O)c31)C(C)(C)C(=O)C(C)(C)C2=O (stereo not drawn) | 1000 | 10000 | 10 | 600 | 400 |
| CC(C)CC(=O)c1c(O)cc2c(c1O)[C@H](CC(C)C)C1=C(C[C@H](C)CC1=O)O2 | 2250 | 20000 | 8.89 |  |  |
| CC(C)CC(=O)c1c(O)cc2c(c1O)[C@H](CC(C)C)C1=C(O2)C(C)(C)[C@@H](O)C(C)(C)C1=O | 2500 | 7500 | 3 |  |  |
| CC(C)C1C2=C(Oc3cc(O)cc(O)c31)C(C)(C)C(=O)C(C)(C)C2=O (stereo not drawn) | 9000 | 20000 | 2.22 |  |  |
| CC(C)CC(=O)c1c(O)cc(O)c2c1OC1=C(C(=O)C(C)(C)C(=O)C1(C)C)C2CC(C)C (racemic) | 2250 | 10000 | 4.44 |  |  |
| CC(C)CC1C2=C(Oc3cc(O)c(C(=O)C4CCCC4)c(O)c31)C(C)(C)C(=O)C(C)(C)C2=O (stereo not drawn) | 580 | 9000 | 15.5 | 300 | 300 |
| CC(C)CC(=O)c1c(O)cc2c(c1O)[C@@H](CC(C)C)C1=C(O2)C(C)(C)C(=O)C(C)(C)C1=O | 410 | 7500 | 18.3 |  |  |
| CC(C)CC(=O)c1c(O)cc2c(c1O)C(C)C1=C(O2)C(C)(C)C(=O)C(C)(C)C1=O (racemic) | 800 | 10000 | < 18.8 |  |  |
| CC(C)CC(=O)c1c(O)cc2c(c1O)C(C1CCCCC1)C1=C(O2)C(C)(C)C(=O)C(C)(C)C1=O (stereo not drawn) | 800 | 10000 | 12.5 | 500 | 500 |
| CCCCC(=O)c1c(O)cc2c(c1O)C(CC(C)C)C1=C(O2)C(C)(C)C(=O)C(C)(C)C1=O (stereo not drawn) | 500 | 8000 | 20 | 1200 | 1200 |
| CC(C)CC1C2=C(Oc3cc(O)c(C(=O)CCc4ccccc4)c(O)c31)C(C)(C)C(=O)C(C)(C)C2=O (stereo not drawn) | 450 | 7000 | 15.6 | 200 | 400 |
| CC(C)CC1C2=C(Oc3c(C(=O)C(C)C)c(O)cc(O)c31)C(C)(C)C(=O)C(C)(C)C2=O (racemic) | 3500 | 12800 | 3.65 |  |  |
| CC(C)CC(=O)c1c(O)cc2c(c1O)C(CC(C)C)C1=C(CCC(C)(C)C1=O)O2 (stereo not drawn) | 2200 | 16000 | 7.27 |  |  |
| COc1cc2c(c(O)c1C(=O)CC(C)C)C(CC(C)C)C1=C(O2)C(C)(C)C(=O)C(C)(C)C1=O (stereo not drawn) | > 100000 | > 100000 |  |  |  |
| CC(C)CC(=O)c1c(O)cc2c(c1O)C(CC(C)C)C1=C(CCCC1=O)O2 (stereo not drawn) | 3000 | 16000 | 5.33 |  |  |
| CC(C)CC(=O)c1c(O)c(C=O)c2c(c1O)C(CC(C)C)C1=C(O2)C(C)(C)C(=O)C(C)(C)C1=O (stereo not drawn) | 2500 | 9000 | 3.6 |  |  |
